This note sets out measurements from US8129337B2, “Compositions comprising epigallocatechin gallate and protein hydrolysate” (DSM IP Assets B.V., priority 2005, dated 2012).

The test system of the experiment is db/db mice. The experiment in a line: Pathologically changed islets of Langerhans in pancreata of db/db mice after 10 weeks of diet. Format: in vivo, mouse. The conditions noted are these: 10 weeks of feeding the diet. As for the experimental part:
Diets containing EGCG, or protein hydrolysate, or the combination of EGCG and protein hydrolysate, or placebo were administered to db/db mice (6 weeks old). The db/db mouse model of severe type 2 diabetes mellitus is well established and commonly used to assess the antidiabetic properties of nutritional or pharmaceutical interventions. Furthermore, the animals are characterized by a progressive loss of pancreatic function and pathological changes of pancreatic histology and morphology. The pancreatic damage occurring in db/db mice is the consequence of high blood glucose and lipid levels. After 10 weeks of administration of the respective diets pancreata of all mice were removed and assessed for pathologically changed islets of Langerhans.

The structures appear in SMILES notation.

On to `O=C(O[C@@H]1Cc2c(O)cc(O)cc2O[C@@H]1c1cc(O)c(O)c(O)c1)c1cc(O)c(O)c(O)c1` [EGCG, epigallocatechin gallate], for which the “Pathological islets (in % of total islets)” value (db/db mice (6 weeks old at start), n = 9 per group, means ± SEM) is reported as 36.5 ± 4.1 % of total islets. Moreover, the “Effect on pathologically changed islets of Langerhans compared to placebo (in words)” value (db/db mice) is on record as “less pathologically changed islets of Langerhans compared to placebo”.
